Laboratory results as given in ChEMBL document CHEMBL5252615, “Synthesis, biological activity and mechanism of action of novel allosecurinine derivatives as potential antitumor agents” (Bioorg Med Chem, 2023).
Active and inactive are the calls of the source. The calls are words filed in the database; no cut-off is given here.

Experiments:
K562 [1] = assay: Induction of apoptosis in human K562 cells assessed as decrease in expression level of Bcl-2 measured after 48 hrs by Western blotting analysis; assay type: functional, cell-based; conditions: dose 1-5 µM
U-937 [2] = assay: Induction of apoptosis in human U-937 cells assessed as decrease in expression level of Bcl-2 measured after 48 hrs by Western blotting analysis; assay type: functional, cell-based; conditions: dose 1-5 µM
THP-1 [3] = assay: Induction of apoptosis in human THP-1 cells assessed as decrease in expression level of Bcl-2 measured after 48 hrs by Western blotting analysis; assay type: functional, cell-based; conditions: dose 1-5 µM
NB-4 [4] = assay: Induction of apoptosis in human NB4 cells assessed as decrease in expression level of Bcl-2 measured after 48 hrs by Western blotting analysis; assay type: functional, cell-based; conditions: dose 1-5 µM
HL-60 [5] = assay: Antitumor activity against human HL-60 cells assessed as reduction in cell viability incubated for 72 hrs; assay type: functional, cell-based; conditions: HL-60, 72 h
KG-1 [6] = assay: Antitumor activity against human KG-1 cells assessed as reduction in cell viability incubated for 72 hrs; assay type: functional, cell-based; conditions: KG-1, 72 h
K562 [7] = assay: Antitumor activity against human K562 cells assessed as reduction in cell viability incubated for 72 hrs; assay type: functional, cell-based; conditions: K562, 72 h
NB-4 [8] = assay: Induction of differentiation of human NB4 cells assessed as increase in CD11b expression at 0.5 uM measured after 72 hrs by flow cytometric analysis; assay type: functional, cell-based
THP-1 [9] = assay: Induction of differentiation of human THP1 cells assessed as increase in CD11b expression at 0.5 uM measured after 72 hrs by flow cytometric analysis; assay type: functional, cell-based
U-937 [10] = assay: Induction of differentiation of human U-937 cells assessed as increase in CD11b expression at 0.5 uM measured after 72 hrs by flow cytometric analysis; assay type: functional, cell-based
NB-4 [11] = assay: Induction of apoptosis in human NB4 cells assessed as necrotic cells at 2.5 uM after 48 hrs by Annexin-V-FITC/PI staining based flow cytometric analysis (reference value: 0.29%); assay type: functional
HL-60 [12] = assay: Induction of apoptosis in human HL-60 cells assessed as viable cells at 2.5 uM after 48 hrs by Annexin-V-FITC/PI staining based flow cytometric analysis (reference value: 96.05%); assay type: functional; conditions: read-out: Activity
HL-60 [13] = assay: Induction of apoptosis in human HL-60 cells assessed as early apoptotic cells at 2.5 uM after 48 hrs by Annexin-V-FITC/PI staining based flow cytometric analysis (reference value: 0.68%); assay type: functional
HL-60 [14] = assay: Induction of apoptosis in human HL-60 cells assessed as late apoptotic cells at 2.5 uM after 48 hrs by Annexin-V-FITC/PI staining based flow cytometric analysis (reference value: 0.44%); assay type: functional
KG-1 [15] = assay: Induction of apoptosis in human KG-1 cells assessed as viable cells at 2.5 uM after 48 hrs by Annexin-V-FITC/PI staining based flow cytometric analysis (reference value: 96.41%); assay type: functional
KG-1 [16] = assay: Induction of apoptosis in human KG-1 cells assessed as early apoptotic cells at 2.5 uM after 48 hrs by Annexin-V-FITC/PI staining based flow cytometric analysis (reference value: 0.70%); assay type: functional
KG-1 [17] = assay: Induction of apoptosis in human KG-1 cells assessed as late apoptotic cells at 2.5 uM after 48 hrs by Annexin-V-FITC/PI staining based flow cytometric analysis (reference value: 0.16%); assay type: functional
U-937 [18] = assay: Induction of apoptosis in human U-937 cells assessed as early apoptotic cells at 2.5 uM after 48 hrs by Annexin-V-FITC/PI staining based flow cytometric analysis (reference value: 2.87%); assay type: functional
U-937 [19] = assay: Induction of apoptosis in human U-937 cells assessed as necrotic cells at 2.5 uM after 48 hrs by Annexin-V-FITC/PI staining based flow cytometric analysis (reference value: 1.41%); assay type: functional
K562 [20] = assay: Induction of apoptosis in human K562 cells assessed as early apoptotic cells at 2.5 uM after 48 hrs by Annexin-V-FITC/PI staining based flow cytometric analysis (reference value: 1.26%); assay type: functional
K562 [21] = assay: Induction of apoptosis in human K562 cells assessed as late apoptotic cells at 2.5 uM after 48 hrs by Annexin-V-FITC/PI staining based flow cytometric analysis (reference value: 0.21%); assay type: functional
THP-1 [22] = assay: Induction of apoptosis in human THP-1 cells assessed as late apoptotic cells at 2.5 uM after 48 hrs by Annexin-V-FITC/PI staining based flow cytometric analysis (reference value: 1.26%); assay type: functional
NB-4 [23] = assay: Induction of apoptosis in human NB4 cells assessed as accumulation of cells at sub-G1 phase at 2.5 uM after 48 hrs by PI staining based flow cytometric analysis; assay type: functional, cell-based
KG-1 [24] = assay: Induction of apoptosis in human KG-1 cells assessed as accumulation of cells at sub-G1 phase at 2.5 uM after 48 hrs by PI staining based flow cytometric analysis; assay type: functional, cell-based
K562 [25] = assay: Induction of apoptosis in human K562 cells assessed as accumulation of cells at sub-G1 phase at 2.5 uM after 48 hrs by PI staining based flow cytometric analysis; assay type: functional, cell-based
U-937 [26] = assay: Induction of apoptosis in human U-937 cells assessed as accumulation of cells at G1 phase at 1 to 2.5 uM after 48 hrs by PI staining based flow cytometric analysis; assay type: functional, cell-based; conditions: dose 1-2.5 µM
KG-1 [27] = assay: Induction of apoptosis in human KG-1 cells assessed as change in mitochondrial membrane potential after 48 hrs by JC-1 staining based flow cytometric analysis; assay type: functional, cell-based
U-937 [28] = assay: Induction of reactive oxygen species production in human U-937 cells at 1 to 5 uM measured after 48 hrs by DCFH-DA staining based flow cytometric analysis; assay type: functional, cell-based; conditions: dose 1-5 µM
KG-1 [29] = assay: Induction of reactive oxygen species production in human KG-1 cells at 1 to 5 uM measured after 48 hrs by DCFH-DA staining based flow cytometric analysis; assay type: functional, cell-based; conditions: dose 1-5 µM
KG-1 [30] = assay: Induction of reactive oxygen species production in human KG-1 cells at 1 to 5 uM measured after 48 hrs by DCF fluorescence analysis; assay type: functional, cell-based; conditions: dose 1-5 µM
THP-1 [31] = assay: Induction of reactive oxygen species production in human THP-1 cells at 1 to 5 uM measured after 48 hrs by DCF fluorescence analysis; assay type: functional, cell-based; conditions: dose 1-5 µM
NB-4 [32] = assay: Induction of apoptosis in human NB4 cells assessed as decrease in expression level of XIAP measured at 1 to 5 uM after 48 hrs by Western blotting analysis; assay type: functional, cell-based; conditions: dose 1-5 µM
KG-1 [33] = assay: Induction of apoptosis in human KG-1 cells assessed as decrease in expression level of YAP1 measured at 1 to 5 uM after 48 hrs by Western blotting analysis; assay type: functional, cell-based; conditions: dose 1-5 µM
KG-1 [34] = assay: Induction of apoptosis in human KG-1 cells assessed as decrease in expression level of caspase 3/9 measured at 1 to 5 uM after 48 hrs by Western blotting analysis; assay type: functional, cell-based; conditions: dose 1-5 µM
K562 [35] = assay: Induction of apoptosis in human K562 cells assessed as decrease in expression level of caspase 3/9 measured at 1 to 5 uM after 48 hrs by Western blotting analysis; assay type: functional, cell-based; conditions: dose 1-5 µM
THP-1 [36] = assay: Induction of apoptosis in human THP-1 cells assessed as decrease in expression level of PARP measured at 1 to 5 uM after 48 hrs by Western blotting analysis; assay type: functional, cell-based; conditions: dose 1-5 µM
U-937 [37] = assay: Induction of apoptosis in human U-937 cells assessed as increase in expression level of p21 measured at 1 to 5 uM after 48 hrs by Western blotting analysis; assay type: functional, cell-based; conditions: dose 1-5 µM

O=C1O[C@@]23C[C@@H](C=CC2=C1C(O)c1ccc([N+](=O)[O-])cc1)N1CCCC[C@H]13 (some centres not stated)
Activity (K562 [1]): Dose-Dependent Effect
Activity (U-937 [2]): Dose-Dependent Effect
Activity (THP-1 [3]): Dose-Dependent Effect
Activity (NB-4 [4]): Dose-Dependent Effect
IC50 (HL-60 [5]): 3950 nM
IC50 (KG-1 [6]): 1060 nM
IC50 (K562 [7]): 1780 nM
Activity (NB-4 [8]): Active
Activity (THP-1 [9]): Active
Activity (U-937 [10]): Active
Activity (NB-4 [11]): 3.4%
viability at 2.5 µM (HL-60 [12]): 73%
Activity (HL-60 [13]): 18.2%
Activity (HL-60 [14]): 6.43%
Activity (KG-1 [15]): 45.18%
Activity (KG-1 [16]): 0.33%
Activity (KG-1 [17]): 46.7%
Activity (U-937 [18]): 13.42%
Activity (U-937 [19]): 29.96%
Activity (K562 [20]): 3.32%
Activity (K562 [21]): 12.56%
Activity (THP-1 [22]): 11.77%
Activity (NB-4 [23]): Active
Activity (KG-1 [24]): Active
Activity (K562 [25]): Active
Activity (U-937 [26]): Active
Activity (KG-1 [27]): Active
Activity (U-937 [28]): Active
Activity (KG-1 [29]): Active
Activity (KG-1 [30]): Active
Activity (THP-1 [31]): Active
Activity (NB-4 [32]): Active
Activity (KG-1 [33]): Active
Activity (KG-1 [34]): Active
Activity (K562 [35]): Active
Activity (THP-1 [36]): Active
Activity (U-937 [37]): Active
